Literature values as cited in patent publication US11446408B2, “Composition and methods for antimicrobial articles” (priority 2011, dated 2022).

How the values were obtained:
Details in all cases: 10 minutes at 25 degrees Celsius
[1] = test system: enteric bacteria
[2] = test system: amoebic cysts
[3] = test system: enteric viruses

II [iodine]
iodine sufficient to kill enteric bacteria [1]: 0.2 PPM
iodine sufficient to kill amoebic cysts [2]: 3.5 PPM
iodine sufficient to kill enteric viruses [3]: 14.6 PPM
